Each structure is given as a SMILES string. Where two headings read alike, the source gives them in different places.

For orientation: viability means a read-out of living cells in per cent, often relative to untreated cells.

Assay [1] relates to AGS (Gastric Adenocarcinoma). The experiment in a line: Cell viability analysis, gastric cancer AGS. As to conditions: Homo sapiens. The assay is classed as cell-based, human.
Assay [2] deals with LoVo (Colorectal Adenocarcinoma). The assay can be described thus: Cell viability analysis, colon cancer LoVo. The assay is classed as cell-based, human. The conditions noted are these: Homo sapiens, LoVo.
In assay [3] the test system is MCF7 (Mammary Gland, Adenocarcinoma). The assay can be described thus: Cell viability analysis, breast cancer MCF7. The assay is classed as cell-based, human. The conditions noted are these: Homo sapiens.
Assay [4] has as its system HCT116 (p53+) (Colorectal Carcinoma). The experiment in a line: cells. The conditions noted are these: Homo sapiens, HCT-116, 72 h, read-out: cell viability (survival rate), HCT116.
Assay [5] has as its system TSGH-8301 (Urinary Bladder Carcinoma). The assay can be described thus: Cell viability analysis, bladder cancer TSGH-8301. Format: cell-based, human. The conditions noted are these: Homo sapiens.
The subject of assay [6] is A549 (Lung Adenocarcinoma). The assay can be described thus: Cell viability analysis, lung cancer A549. The assay is classed as cell-based, human. As to conditions: Homo sapiens.
In assay [7] the test system is HepG2 (Hepatocellular Carcinoma). The experiment in a line: Cell viability analysis, hepatic cancer HepG2. The assay is classed as cell-based, human. The conditions noted are these: Homo sapiens.
Assay [8] has as its system A375 (Amelanotic Melanoma). The experiment in a line: Cell viability analysis, skin cancer A375. Format: cell-based, human. As to conditions: Homo sapiens.
The subject of assay [9] is MKN-45 (Gastric Adenocarcinoma). The assay can be described thus: Cell viability analysis, gastric cancer MKN-45. The conditions noted are these: Homo sapiens. Format: cell-based, human.
In assay [10] the test system is PC3 (p53−) (Prostate Adenocarcinoma). The experiment in a line: Cell viability analysis, prostate cancer PC3. The assay is classed as cell-based, human. As to conditions: Homo sapiens.
For assay [11], the system named is cancer cell lines. The assay can be described thus: Cell viability analysis (WST-1) on cancer cell lines. Format: cell-based, human. As to conditions: drug 10 μM, 72 hours, WST-1; Table 3. For orientation: Formazan colour is commonly taken as a measure of viable cells.
In assay [12] the test system is HI650 (Lung Adenocarcinoma). The experiment in a line: Cell viability analysis, lung cancer HI650. Format: cell-based, human. As to conditions: Homo sapiens.
The test system of assay [13] is HeLa (Cervix Adenocarcinoma). The assay can be described thus: Cell viability analysis, cervical cancer HeLa. The assay is classed as cell-based, human. As to conditions: Homo sapiens, HeLa.
Assay [14] deals with HL-60 (Acute Promyelocytic Leukemia). The assay can be described thus: Cell viability analysis, leukemia HL-60. Format: cell-based, human. The conditions noted are these: Homo sapiens.
Setting [15] is: 72 h, read-out: cell viability (survival rate), AGS, drug 10 μM, 72 hours, WST-1, OD450 nm.
[16] abbreviates: 72 h, read-out: cell viability (survival rate), LoVo, drug 10 μM, 72 hours, WST-1, OD450 nm.
Setting [17] is: MCF7, 72 h, read-out: cell viability (survival rate), MCF7, drug 10 μM, 72 hours, WST-1, OD450 nm.
[18] abbreviates: 72 h, read-out: cell viability (survival rate), TSGH, drug 10 μM, 72 hours, WST-1, OD450 nm.
[19] abbreviates: A549, 72 h, read-out: cell viability (survival rate), A549, drug 10 μM, 72 hours, WST-1, OD450 nm.
Setting [20] is: HepG2, 72 h, read-out: cell viability (survival rate), HepG2, drug 10 μM, 72 hours, WST-1, OD450 nm.
Where [21] appears, read: A-375, 72 h, read-out: cell viability (survival rate), A375, drug 10 μM, 72 hours, WST-1, OD450 nm.
[22] abbreviates: MKN-45, 72 h, read-out: cell viability (survival rate), MKN-45, drug 10 μM, 72 hours, WST-1, OD450 nm.
[23] abbreviates: 72 h, read-out: cell viability (survival rate), PC3, drug 10 μM, 72 hours, WST-1, OD450 nm.
[24] abbreviates: NCI-H1650, 72 h, read-out: cell viability (survival rate), H1650, drug 10 μM, 72 hours, WST-1, OD450 nm.
The mark [25] stands for this setting: 72 h, read-out: cell viability (survival rate), HeLa, drug 10 μM, 72 hours, WST-1, OD450 nm.
The mark [26] stands for this setting: 72 h, drug 10 μM, 72 hours, WST-1, OD450 nm, read-out: cell viability (survival rate), AGS.
Where [27] appears, read: MCF7, 72 h, drug 10 μM, 72 hours, WST-1, OD450 nm, read-out: cell viability (survival rate), MCF7.
Setting [28] is: 72 h, drug 10 μM, 72 hours, WST-1, OD450 nm, read-out: cell viability (survival rate), TSGH.
Where [29] appears, read: A549, 72 h, drug 10 μM, 72 hours, WST-1, OD450 nm, read-out: cell viability (survival rate), A549.
Setting [30] is: HepG2, 72 h, drug 10 μM, 72 hours, WST-1, OD450 nm, read-out: cell viability (survival rate), HepG2.
Setting [31] is: A-375, 72 h, drug 10 μM, 72 hours, WST-1, OD450 nm, read-out: cell viability (survival rate), A375.
The mark [32] stands for this setting: MKN-45, 72 h, drug 10 μM, 72 hours, WST-1, OD450 nm, read-out: cell viability (survival rate), MKN-45.
The mark [33] stands for this setting: HL-60, 72 h, drug 10 μM, 72 hours, WST-1, OD450 nm, read-out: cell viability (survival rate), HL-60.
[34] abbreviates: 72 h, drug 10 μM, 72 hours, WST-1, OD450 nm, read-out: cell viability (survival rate), PC3.
Where [35] appears, read: NCI-H1650, 72 h, drug 10 μM, 72 hours, WST-1, OD450 nm, read-out: cell viability (survival rate), H1650.
Setting [36] is: 72 h, drug 10 μM, 72 hours, WST-1, OD450 nm, read-out: cell viability (survival rate), HeLa.
The mark [37] stands for this setting: HL-60, 72 h, read-out: cell viability (survival rate), HL-60, drug 10 μM, 72 hours, WST-1, OD450 nm.

Regarding `CO[C@@]1(NC(=O)C(C(=O)O)c2ccc(O)cc2)C(=O)N2C(C(=O)O)=C(CSc3nnnn3C)CO[C@@H]21` (stereo partly shown) [Moxalactam Disodium], the viability at 10 µM in [1] (setting [15]) is 76.9%; in assay [2] (setting [16]), 94%; in [3] (setting [17]), 80.7%; in assay [4] it was 73.9%; in [5] (setting [18]), 55.9%; in assay [6] (setting [19]), 76.6%. The viability at 10 µM in assay [7] (setting [20]) is 79.1%; in assay [8] (setting [21]), 80.8%; in assay [9] (setting [22]), 110%; in [10] (setting [23]) it was 95%; in assay [12] (setting [24]), 66.9%; in [13] (setting [25]), 61.3%. Further, in assay [11], the “inhibition effect on different cancer cell lines” value is reported as “significant inhibition effect”.
For the molecule `COC(=O)C1=CO[C@@H](O[C@@H]2O[C@H](CO)[C@@H](O)[C@H](O)[C@H]2O)[C@@H]2C(CO)=CC[C@H]12` [Geniposide], the viability at 10 µM in assay [1] (drug 10 μM, 72 hours, WST-1, OD450 nm, read-out: cell viability (survival rate), AGS) was found to be 54.2%; in [2] (drug 10 μM, 72 hours, WST-1, OD450 nm, read-out: cell viability (survival rate), LoVo) it was 74.1%; in [3] (MCF7, drug 10 μM, 72 hours, WST-1, OD450 nm, read-out: cell viability (survival rate), MCF7) it was 73.8%; in assay [4], 73.9%; in assay [5] (drug 10 μM, 72 hours, WST-1, OD450 nm, read-out: cell viability (survival rate), TSGH) it was 53.1%; in assay [6] (A549, drug 10 μM, 72 hours, WST-1, OD450 nm, read-out: cell viability (survival rate), A549) it was 63.7%. In addition, the viability at 10 µM in assay [7] (HepG2, drug 10 μM, 72 hours, WST-1, OD450 nm, read-out: cell viability (survival rate), HepG2) was 88.6%; in assay [8] (A-375, drug 10 μM, 72 hours, WST-1, OD450 nm, read-out: cell viability (survival rate), A375), 73.4%; in assay [9] (MKN-45, drug 10 μM, 72 hours, WST-1, OD450 nm, read-out: cell viability (survival rate), MKN-45) it was 45.6%; in assay [14] (HL-60, drug 10 μM, 72 hours, WST-1, OD450 nm, read-out: cell viability (survival rate), HL-60), 120%; in assay [10] (drug 10 μM, 72 hours, WST-1, OD450 nm, read-out: cell viability (survival rate), PC3) it was 65.5%; in assay [12] (NCI-H1650, drug 10 μM, 72 hours, WST-1, OD450 nm, read-out: cell viability (survival rate), H1650) it was 71.2%. Besides, the viability at 10 µM in assay [13] (drug 10 μM, 72 hours, WST-1, OD450 nm, read-out: cell viability (survival rate), HeLa) was found to be 81%.
Turning to `COC(=O)N/N=C/c1c[n+]([O-])c2ccccc2[n+]1[O-]` [Carbadox], the viability at 10 µM worked out at 51.9% in [1] (setting [26]); 54.4% in [2] (setting [16]); 34.6% in assay [3] (setting [27]); 72.8% in [4]; 67.9% in assay [5] (setting [28]); 24.8% in assay [6] (setting [29]). The viability at 10 µM in assay [7] (setting [30]) came to 88.7%; in assay [8] (setting [31]), 52.4%; in assay [9] (setting [32]), 104%; in assay [14] (setting [33]) it was 87%; in assay [10] (setting [34]), 52.5%; in assay [12] (setting [35]), 56.9%. Moreover, in assay [13] (setting [36]), the viability at 10 µM amounted to 60%.
Consider `C[C@@H]1CCC[C@H](C)N1NC(=O)c1ccc(Cl)c(S(N)(=O)=O)c1` [Clopamide], for which the viability at 10 µM in assay [1] (setting [15]) was found to be 50.3%; in [2] (setting [16]), 54.3%; in assay [3] (setting [17]) it was 33.4%; in assay [4], 102%; in [5] (setting [18]) it was 59%; in assay [6] (setting [19]), 32.4%. Moreover, the viability at 10 µM in assay [7] (setting [20]) is 92.8%; in [8] (setting [21]) it was 63.1%; in assay [9] (setting [22]), 89.4%; in [14] (setting [37]), 102%; in [10] (setting [23]) it was 40.3%; in [12] (setting [24]), 54%. For the same molecule, the viability at 10 µM in assay [13] (setting [25]) stood at 87.1%.
As to `O[C@@H]1CO[C@H]2[C@@H]1OC[C@@H]2O` [Isosorbide], the viability at 10 µM in assay [1] (setting [15]) worked out at 69%; in assay [2] (setting [16]) it was 81.8%; in assay [3] (setting [17]), 78.6%; in [4], 55.1%; in [5] (setting [18]) it was 77.5%; in [6] (setting [19]) it was 60.7%. The viability at 10 µM in [7] (setting [20]) came to 90.1%; in [8] (setting [21]), 53.5%; in assay [9] (setting [22]) it was 93.1%; in assay [14] (setting [37]), 125%; in assay [10] (setting [23]) it was 94.3%; in [12] (setting [24]), 73.3%. For the same molecule, the viability at 10 µM in [13] (setting [25]) is 72.8%.
For the molecule `COc1cc(/C=C/C(=O)CC(=O)/C=C/c2ccc(O)c(OC)c2)ccc1O` [Curcumin], the viability at 10 µM in [1] (setting [15]) was 72.2%; in assay [2] (setting [16]), 80%; in assay [3] (setting [17]), 61.8%; in assay [4], 93.6%; in assay [5] (setting [18]), 95.4%; in [6] (setting [19]), 105%. The viability at 10 µM in assay [7] (setting [20]) stood at 98.3%; in assay [8] (setting [21]), 104%; in [9] (setting [22]) it was 46.4%; in assay [14] (setting [37]), 111%; in assay [10] (setting [23]), 77.9%; in [12] (setting [24]) it was 74.7%. Further, in [13] (setting [25]), the viability at 10 µM came out at 66.2%.
As to `CCc1oc2ccccc2c1C(=O)c1cc(Br)c(O)c(Br)c1` [Benzbromarone], the viability at 10 µM in assay [1] (setting [26]) amounted to 80.1%; in [2] (setting [16]), 105%; in [3] (setting [27]), 52.8%; in assay [4] it was 128%; in [5] (setting [28]), 99.9%; in assay [6] (setting [29]), 51.5%. Besides, the viability at 10 µM in assay [7] (setting [30]) was determined as 103%; in assay [8] (setting [31]) it was 99.2%; in [9] (setting [32]) it was 86.2%; in [14] (setting [33]), 85.5%; in [10] (setting [34]) it was 80.9%; in assay [12] (setting [35]), 75.3%. Also, the viability at 10 µM in assay [13] (setting [36]) came out at 104%.
